SMILES strings stand for the structures.

By EC50 is commonly meant the concentration needed to bring the measured effect to its halfway point.

Sequence of human mGluR5 receptor (P41594 21-1212): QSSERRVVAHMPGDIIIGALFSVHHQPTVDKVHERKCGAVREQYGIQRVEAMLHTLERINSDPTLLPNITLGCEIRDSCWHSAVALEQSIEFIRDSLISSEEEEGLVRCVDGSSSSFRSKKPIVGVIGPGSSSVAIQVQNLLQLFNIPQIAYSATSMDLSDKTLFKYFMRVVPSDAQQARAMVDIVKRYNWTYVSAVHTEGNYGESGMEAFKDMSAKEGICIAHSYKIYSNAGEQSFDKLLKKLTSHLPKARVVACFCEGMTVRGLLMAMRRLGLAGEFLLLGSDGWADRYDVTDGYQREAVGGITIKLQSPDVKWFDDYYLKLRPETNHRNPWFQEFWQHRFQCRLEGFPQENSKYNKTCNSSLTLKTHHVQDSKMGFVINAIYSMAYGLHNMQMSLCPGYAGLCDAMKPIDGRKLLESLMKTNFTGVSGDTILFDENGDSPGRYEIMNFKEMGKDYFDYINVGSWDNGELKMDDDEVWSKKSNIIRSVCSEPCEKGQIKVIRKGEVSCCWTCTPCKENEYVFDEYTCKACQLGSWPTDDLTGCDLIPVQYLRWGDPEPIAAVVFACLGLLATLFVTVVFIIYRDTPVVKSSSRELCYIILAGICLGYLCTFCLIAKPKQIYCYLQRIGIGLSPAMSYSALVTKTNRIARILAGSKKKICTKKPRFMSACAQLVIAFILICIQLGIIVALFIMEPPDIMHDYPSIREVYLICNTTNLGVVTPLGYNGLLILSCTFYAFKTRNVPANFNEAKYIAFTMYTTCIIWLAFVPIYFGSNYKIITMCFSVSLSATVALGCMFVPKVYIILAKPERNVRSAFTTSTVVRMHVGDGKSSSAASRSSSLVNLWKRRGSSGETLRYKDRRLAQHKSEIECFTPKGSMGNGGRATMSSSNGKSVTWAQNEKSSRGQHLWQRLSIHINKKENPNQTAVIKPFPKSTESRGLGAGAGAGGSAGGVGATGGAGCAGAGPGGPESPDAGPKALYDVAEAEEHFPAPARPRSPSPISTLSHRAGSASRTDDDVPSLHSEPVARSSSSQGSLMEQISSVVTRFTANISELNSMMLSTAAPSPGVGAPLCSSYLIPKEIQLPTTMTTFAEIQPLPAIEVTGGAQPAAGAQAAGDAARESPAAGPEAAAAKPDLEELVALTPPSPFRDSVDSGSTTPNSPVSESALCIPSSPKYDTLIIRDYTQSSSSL

For the test, the target named is human mGluR5 receptor (Homo sapiens (Human), UniProt P41594). Put plainly: Calcium influx assay based on fluorescence (mGluR5 PAM activity). The conditions noted are these: human mGluR5 receptor-overexpressed HEK293 cell line; L-glutamate EC20; Fluo-4, FLIPR. Here is the method:
Efficacy as a positive allosteric modulator (PAM) of mGluR5 of the compounds of the Examples was tested as follows:
Calcium Influx Assay Based on Fluorescence
Ca^2+ (calcium) influx assay is an experiment for measuring the activity of a positive allosteric modulator of mGluR5 receptor in which human mGluR5 receptor-overexpressed HEK293 cell line is used. The day before the experiment, cells were prepared in a cell culture medium (DMEM, 5% FBS) with the density of 80,000/well, and 100 μl of cells were dispensed into each well of a poly-D-lysine-coated 96-well plate. Cells were incubated in a 5% CO2, 37° C. incubator. The next day, the cell culture medium was removed from the plate, and 100 μl of 1× Fluo-4 calcium indicator diluted with a buffer (1× Hank's balanced salt solution, 20 mM HEPES, 2.5 mM probenecid) were added to each well and incubated at 37° C. for 1 hour. The compound stock solutions were prepared in 100% DMSO, and the compounds were serially diluted with a ¼ dilution to 6 or 7 concentrations (final concentration was 10 μM to 10 nM). The diluted compound solutions were added to the plate with 0.1 to 0.2% of final DMSO concentration. 1 hour after the addition of Fluo-4 calcium indicator, L-glutamate (EC20 concentration) and the test compound solutions were added to the plate, and Ca^2+ reaction was then measured by FLIPR at room temperature. The activity of the compounds was standardized on the basis of the results of maximum value-minimum value of fluorescent reaction, and the activity value was calculated on the basis that no activity on glutamate EC20 is 0% and the reaction to glutamate maximum value is 100%.
Turning to `COc1ccccc1-c1cnc2nc(COc3ccccc3)cn2c1` [Example 4, 6-(2-methoxyphenyl)-2-phenoxymethylimidazo[1,2-a]pyrimidine], the EC50 is 100 to 500 nM. In the case of `Fc1ccc(-c2cnc3nc(COc4ccccc4)cn3c2)cc1Cl` [Example 13, 6-(3-chloro-4-fluorophenyl)-2-phenoxymethylimidazo[1,2-a]pyrimidine], the EC50 lay in the range of 500 to 1000 nM.

In the case of `Fc1ccnc(OCc2cn3cc(-c4cccc(F)c4F)cnc3n2)c1` [Example 122, 6-(2,3-difluorophenyl)-2-[(4-fluoro-2-pyridyl)oxymethyl)imidazo[1,2-a]pyrimidine], the EC50 was in the range of 500 to 1000 nM. As for `Cc1ccc(-c2cnc3nc(COc4ccc(F)cc4)cn3c2)c(F)c1` [Example 64, 6-(2-fluoro-4-methyl-phenyl)-2-[(4-fluorophenoxy)methyl]imidazo[1,2-a]pyrimidine], the EC50 is 500 to 1000 nM. On to `Fc1ccc(-c2cnc3nc(COc4ccccc4)cn3c2)cc1F` [Example 19, 6-(3,4-difluorophenyl)-2-phenoxymethylimidazo[1,2-a]pyrimidine], for which the EC50 fell in the range of 500 to 1000 nM. Consider `Cc1cc(F)ccc1-c1cnc2nc(COc3ccccn3)cn2c1` [Example 106, 6-(4-fluoro-2-methylphenyl)-2-(pyridin-2-yloxymethyl)imidazo[1,2-a]pyrimidine], for which the concentration for a half-maximal effect (EC50) lay within 100 to 500 nM. On to `Fc1ccnc(OCc2cn3cc(-c4ccc(F)cc4F)cnc3n2)c1` [Example 120, 6-(2,4-difluorophenyl)-2-[(4-fluoro-2-pyridyl)oxymethyl)imidazo[1,2-a]pyrimidine], for which the EC50 fell in the range of 100 to 500 nM. Consider `COc1cc(C#N)ccc1-c1cnc2nc(COc3ccc(F)cc3)cn2c1` [Example 68, 4-[2-[(4-fluorophenoxy)methyl]imidazo[1,2-a]pyrimidin-6-yl]-3-methoxy-benzonitrile], for which the EC50 lay in the range of 100 to 500 nM. For the compound `NC(=O)OCc1cc(F)ccc1-c1cnc2nc(COc3ccc(F)cc3)cn2c1` [Example 193, [5-fluoro-2-[2-[(4-fluorophenoxy)methyl]imidazo[1,2-a]pyrimidin-6-yl]phenyl]methyl carbamate], the EC50 fell in the range of 100 to 500 nM.

Regarding `Cc1cc(Cl)ccc1-c1cnc2nc(COc3ccc(F)cn3)cn2c1` [Example 127, 6-(4-chloro-2-methyl-phenyl)-2-[(5-fluoro-2-pyridyl)oxymethyl)imidazo[1,2-a]pyrimidine], the EC50 was in the range of 100 to 500 nM. Consider `Fc1ccc(-c2cnc3nc(COc4ccccn4)cn3c2)cc1` [Example 102, 6-(4-fluorophenyl)-2-(pyridin-2-yloxymethyl)imidazo[1,2-a]pyrimidine], for which the EC50 was in the range of 100 to 500 nM.

Take `COc1cc(F)ccc1-c1cnc2nc(COc3cccc(F)c3)cn2c1` [Example 42, 6-(4-fluoro-2-methoxyphenyl)-2-(3-fluorophenoxymethyl)imidazo[1,2-a]pyrimidine]: the EC50 lay in the range of 500 to 1000 nM. As for `Fc1ccc(OCc2cn3cc(-c4ccccc4)cnc3n2)cc1` [Example 56, 2-[(4-fluorophenoxy)methyl]-6-phenyl-imidazo[1,2-a]pyrimidine], the figure is 100 to 500 nM. `Oc1cc(F)ccc1-c1cnc2nc(COc3cccnc3)cn2c1` [Example 150, 6-(4-fluoro-2-hydroxyphenyl)-2-(pyridin-3-yloxymethyl)imidazo[1,2-a]pyrimidine]: the EC50 is 500 to 1000 nM. In the case of `Cc1cc(Cl)ccc1-c1cnc2nc(COc3ccccn3)cn2n1` [Example 190, 2-(4-chloro-2-methyl-phenyl)-6-(2-pyridyloxymethyl)imidazo[1,2-b][1,2,4]triazine], the EC50 was 100 to 500 nM. Consider `Fc1ccc(-c2cnc3nc(COc4ccccn4)cn3n2)c(C(F)(F)F)c1` [Example 186, 2-[4-fluoro-2-(trifluoromethyl)phenyl]-6-(2-pyridyloxymethyl)imidazo[1,2-b][1,2,4]triazine], for which the EC50 lay in the range of 100 to 500 nM.

On to `Fc1ccc(-c2cnc3nc(COc4ccccc4)cn3c2)cn1` [Example 31, 6-(6-fluoropyridin-3-yl)-2-phenoxymethylimidazo[1,2-a]pyrimidine], for which the EC50 lay in the range of 100 to 500 nM.

(Values after US9745310B2 (SK BIOPHARMACEUTICALS CO., LTD., priority 2015, dated 2017).)
